Test results from ChEMBL document CHEMBL1159178, “The use of a proline ring as a conformational restraint in CCK-B receptor dipeptoids” (Bioorg Med Chem Lett, 1992).
Each block holds one molecule with its values, some of them ahead of it.

Columns and labels:
[1] = target: T1, Gastrin/cholecystokinin type B receptor (Mus musculus, UniProt P56481); assay: Evaluated for in vitro binding affinity towards cholecystokinin-B (CCK-B) receptor in mouse cerebral cortex using [125I]bolton hunter CCK-26-33 as radioligand; 365-1590; assay type: tissue-based
T1 sequence (P56481 whole entry): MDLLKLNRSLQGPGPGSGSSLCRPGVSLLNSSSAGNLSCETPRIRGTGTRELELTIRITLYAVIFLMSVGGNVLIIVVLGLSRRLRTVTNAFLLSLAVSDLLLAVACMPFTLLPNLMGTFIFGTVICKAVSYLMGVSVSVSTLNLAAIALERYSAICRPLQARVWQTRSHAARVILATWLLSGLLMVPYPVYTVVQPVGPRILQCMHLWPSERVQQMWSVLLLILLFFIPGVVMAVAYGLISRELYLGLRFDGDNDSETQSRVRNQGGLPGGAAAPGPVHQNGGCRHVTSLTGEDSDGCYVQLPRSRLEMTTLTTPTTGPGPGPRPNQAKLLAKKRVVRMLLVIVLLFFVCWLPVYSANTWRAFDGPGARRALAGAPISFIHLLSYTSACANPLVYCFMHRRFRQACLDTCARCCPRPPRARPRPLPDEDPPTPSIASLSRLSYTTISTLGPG

[2] = target: T2, Cholecystokinin receptor type A (Rattus norvegicus, UniProt P30551); assay: Evaluated for in vitro binding affinity to cholecystokinin-A (CCK-A) receptor in homogenized rat pancreas using [125I]bolton hunter CCK-26-33 as radioligand; 770-2020
T2 sequence (P30551 whole entry): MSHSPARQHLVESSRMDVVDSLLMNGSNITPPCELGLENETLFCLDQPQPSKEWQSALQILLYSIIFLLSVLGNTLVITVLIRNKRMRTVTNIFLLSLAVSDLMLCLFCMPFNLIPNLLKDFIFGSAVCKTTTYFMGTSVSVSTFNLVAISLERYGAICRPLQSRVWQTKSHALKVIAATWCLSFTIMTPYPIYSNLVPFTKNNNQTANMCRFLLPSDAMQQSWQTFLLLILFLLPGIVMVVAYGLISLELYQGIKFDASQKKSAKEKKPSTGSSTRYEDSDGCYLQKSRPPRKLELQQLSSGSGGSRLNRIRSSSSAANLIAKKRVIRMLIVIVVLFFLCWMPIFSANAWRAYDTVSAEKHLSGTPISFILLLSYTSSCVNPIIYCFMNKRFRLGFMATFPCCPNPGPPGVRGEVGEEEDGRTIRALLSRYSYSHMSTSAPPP

[3] = target: T1, Gastrin/cholecystokinin type B receptor; assay: Evaluated for in vitro binding affinity towards cholecystokinin-B (CCK-B) receptor in mouse cerebral cortex using [125I]bolton hunter CCK-26-33 as radioligand; 4.2-8.9; assay type: tissue-based
[4] = target: T2, Cholecystokinin receptor type A; assay: Evaluated for in vitro binding affinity to cholecystokinin-A (CCK-A) receptor in homogenized rat pancreas using [125I]bolton hunter CCK-26-33 as radioligand; 690-850
[5] = target: T1, Gastrin/cholecystokinin type B receptor; assay: Evaluated for in vitro binding affinity towards cholecystokinin-B (CCK-B) receptor in mouse cerebral cortex using [125I]bolton hunter CCK-26-33 as radioligand; 1790-2700; assay type: tissue-based
[6] = target: T2, Cholecystokinin receptor type A; assay: Evaluated for in vitro binding affinity to cholecystokinin-A (CCK-A) receptor in homogenized rat pancreas using [125I]bolton hunter CCK-26-33 as radioligand; 743-1710

IC50 [1]: 852 nM
IC50 [2]: 1080 nM
Structure (SMILES): CC(Cc1c[nH]c2ccccc12)(NC(=O)OC1C2CC3CC(C2)CC1C3)C(=O)NC(CO)Cc1ccccc1 (stereo unspecified)

IC50 [3]: 6.3 nM
IC50 [4]: 780 nM
Structure (SMILES): O=C(NC(Cc1c[nH]c2ccccc12)C(=O)NC(CO)Cc1ccccc1)OC1C2CC3CC(C2)CC1C3 (stereo unspecified)

IC50 [5]: 2080 nM
IC50 [6]: 1050 nM
Structure (SMILES): O=C(OC1C2CC3CC(C2)CC1C3)N1CCCC1(Cc1c[nH]c2ccccc12)C(=O)NC(CO)Cc1ccccc1 (stereo unspecified)
